Assays:
human mGluR2 receptor = target: T1, human mGluR2 receptor (Homo sapiens, UniProt Q14416); assay: [35S]GTPγS binding assay (GTPγS-PAM): positive allosteric modulation in presence of glutamate at EC25, membranes from transfected CHO cells; format: biochemical; details: in presence of mGluR2 agonist glutamate at predetermined EC25 concentration, averages of duplicate values of 11-concentration response curves, read-out: GTPgS - hR2 PAM pEC50 (converted)
T1 construct: expressed in transfected cells; host or cells: CHO cells (membrane preparation)
T1 sequence (Q14416 19-872): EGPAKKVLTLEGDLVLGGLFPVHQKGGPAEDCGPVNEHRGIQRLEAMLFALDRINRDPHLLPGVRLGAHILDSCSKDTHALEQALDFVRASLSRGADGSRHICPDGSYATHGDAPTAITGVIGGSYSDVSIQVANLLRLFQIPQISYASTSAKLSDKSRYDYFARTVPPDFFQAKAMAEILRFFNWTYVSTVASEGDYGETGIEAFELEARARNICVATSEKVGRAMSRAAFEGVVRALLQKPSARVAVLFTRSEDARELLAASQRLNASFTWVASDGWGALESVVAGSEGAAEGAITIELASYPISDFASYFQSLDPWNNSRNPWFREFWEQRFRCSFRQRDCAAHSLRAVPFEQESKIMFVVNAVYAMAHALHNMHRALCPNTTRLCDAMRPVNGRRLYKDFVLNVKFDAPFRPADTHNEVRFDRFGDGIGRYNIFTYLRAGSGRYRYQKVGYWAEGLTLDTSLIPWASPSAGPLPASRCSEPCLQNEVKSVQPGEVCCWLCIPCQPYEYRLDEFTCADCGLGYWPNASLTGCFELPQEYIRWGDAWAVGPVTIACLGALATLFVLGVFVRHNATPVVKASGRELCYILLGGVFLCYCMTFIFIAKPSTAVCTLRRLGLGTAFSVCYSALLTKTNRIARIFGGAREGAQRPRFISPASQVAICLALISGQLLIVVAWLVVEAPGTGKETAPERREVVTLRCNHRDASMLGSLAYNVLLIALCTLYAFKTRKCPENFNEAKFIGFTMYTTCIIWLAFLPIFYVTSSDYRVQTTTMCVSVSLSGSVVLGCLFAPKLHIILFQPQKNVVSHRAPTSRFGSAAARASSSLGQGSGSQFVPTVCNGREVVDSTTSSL
Procedure, shortened: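 Membranes came from butyrate-stimulated CHO cells expressing human mGluR2, used at 15 μg/well in HEPES pH 7.4 with 100 mM NaCl, 3 mM MgCl2, 50 μM GDP and saponin. Compound (0.3 nM-50 μM, 11 concentrations) plus glutamate at EC25 was preincubated 30 min at 30° C., then 0.1 nM [35S]GTPγS was added for 30 min. Filter-bound radioactivity was counted, nonspecific binding was taken with 10 μM GTP, and curves were fitted by four-parameter logistic.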

EC50 (human mGluR2 receptor) [nM] | melting point [°C] | Compound
63.1 | 136 | CC(C)CCn1ccc(-c2ccc(NCc3cccc(F)c3)cc2)c(C#N)c1=O [1-199]
158 | 128 | CSc1ccc(-c2ccn(CCC(C)C)c(=O)c2C#N)cc1 [1-256]
2510 | 161 | CC(C)CCn1ccc(-c2cccc(F)c2)c(C#N)c1=O [1-088]
501 | 139 | CC(C)CCn1ccc(-c2ccc(Oc3ccncc3)cc2)c(C#N)c1=O [1-156]
50.1 | 209 | CC(C)CCn1ccc(-c2ccc(NCc3ccc(C#N)cc3)cc2)c(C#N)c1=O [1-206]
126 | 128 | COc1ccc(-c2ccn(CC3CCC(C)CC3)c(=O)c2C#N)cc1 (stereo not drawn) [1-013]
50.1 | 96 | N#Cc1c(N2CCC(N(Cc3cccc(C(F)(F)F)c3)C3CC3)CC2)ccn(Cc2ccc(F)cc2)c1=O [4-060]
1000 | 169 | CC(C)CCn1ccc(OC2Cc3ccccc3C2)c(C#N)c1=O [1-288]
6310 | 120 to 121 | CC(C)CCn1ccc(-c2ccc3c(c2)OCO3)c(C#N)c1=O [1-252]
3980 | 125 | CC(C)CCn1ccc(-c2ccccc2F)c(C#N)c1=O [1-087]
126 | 137 | CC(C)CCn1ccc(-c2ccc(N(C)C)cc2)c(C#N)c1=O [1-172]
794 | 102 | Cc1ccc(-c2ccn(CCC(C)C)c(=O)c2C#N)cc1 [1-085]
631 | 142 | CC(C)CCn1ccc(-c2ccc(CN(C)Cc3ccncc3)cc2)c(C#N)c1=O [1-211]
398 | 156 | CC(C)CCn1ccc(-c2ccc(OCc3ccncc3)cc2F)c(C#N)c1=O [1-162]
1000 | 223 | CC(C)CCn1ccc(C(=O)N2CCN(c3ncccn3)CC2)c(C#N)c1=O [2-037]
398 | 113 | CC(C)CCn1ccc(N2CCC(c3noc(CC(C)(C)C)n3)CC2)c(C#N)c1=O [4-040]
501 | 138 | CC(C)CCn1ccc(N2CCC(Nc3ccccc3)C(C)C2)c(C#N)c1=O (stereo not drawn) [4-043]
316 | 153 | N#Cc1c(-c2ccccc2)ccn(Cc2cccc(OC(F)(F)F)c2)c1=O [1-030]
